In US11008323B2, “Substituted tricyclic 1,4-benzodiazepinone derivatives as allosteric modulators of group II metabotropic glutamate receptors” (Domain Therapeutics, priority 2015, dated 2021):

Biological target: T1, human mGluR3 (hmGluR3) (Homo sapiens, UniProt Q14832)
T1 construct: expressed in transfected cells; host or cells: HEK-293 cells, transient co-transfection by electroporation
Test: Human mGluR3 positive allosteric modulator evaluation using Ca++ functional assay
Assay type: cell-based
Details: hmGluR3 transiently over-expressed in HEK-293 cells; stimulated by EC50 glutamate concentration; intracellular Ca2+ (Fluo4AM, FLIPR Tetra)
Procedure: Compounds of the present invention were tested successively for their agonist and positive allosteric modulator activities on human mGluR3 (hmGluR3) transiently over-expressed in HEK-293 cells. Compounds exert agonist activity if they are able to activate hmGluR3 by themselves, i.e., in absence of the endogenous agonist glutamate; and they exert positive allosteric modulator activity if they increase the action of the endogenous agonist glutamate.
HEK-293 cells were maintained in Modified Eagle's Medium supplemented with 10% Foetal Calf Serum, 1% Penicillin/Streptomycin and 1% non-essential amino acids at 37° C./5% CO2.
Cells were co-transfected by electroporation with four DNA plasmids encoding hmGluR3, a chimeric G protein allowing redirection of the activation signal toward intracellular calcium pathway, and two glutamate transporters so as to decrease extracellular glutamate levels and avoid receptor desensitization (Brabet I et al., Neuropharmacology 37(8), 1043-51, 1998). After transfection, cells were seeded in 75 cm^2 culture flasks, and cultured for 24 h.
Receptor activity was detected by changes in intracellular calcium measured using the fluorescent Ca^2+ sensitive dye, Fluo4AM (Molecular Probes).
The day of the assay, medium was aspirated and replaced during 3 hrs by freshly prepared buffer B (HBSS 1×, Hepes 20 mM, MgSO4-7H2O 1 mM, Na2CO3 3.3 mM, CaCl2-2H2O 1.3 mM, 0.5% BSA, Probenecid 2.5 mM). Then, cells were loaded at 37° C./5% CO2 for 1.5 hrs with buffer B containing 1 μM Fluo4AM, 0.1 mg/mL Pluronic Acid, 7 μg/mL Glutamate Pyruvate Transaminase and 2 mM sodium pyruvate. Afterwards cells were washed with buffer B. Cells were then detached from the 75 cm^2 culture flasks with Accutase® (5 min incubation at 37° C.), centrifuged (5 min at 840 rpm), resuspended in buffer B and finally seeded at a density of 30,000 cells/well in black-walled clear-bottom 384-well plates. Addition of compounds on cells and intracellular Ca^2+ measurements (excitation 485 nm, emission 525 nm) were performed by the fluorescence microplate reader FLIPR Tetra (Molecular Devices).
Agonist and positive allosteric modulator activities of compounds were consecutively evaluated on the same cells plate. Agonist activity was first tested during 10 min with the addition of compound alone on the cells. Then, the cells were stimulated by an EC50 glutamate concentration and fluorescence was recorded for additional 3 min. EC50 glutamate concentration is the concentration giving 50% of the maximal glutamate response. Agonist and/or positive allosteric modulator activity(ies) were evaluated in comparison to basal signal or signal evoked by EC50 glutamate concentration alone, respectively.
For potency determination, a dose-response test was performed using 20 concentrations of each compound of the invention. Dose-response curves were fitted using the sigmoïdal dose-response (variable slope) analysis in XLfit Scientific Curve Fitting for Excel (IDBS). EC50 of agonist/EC50 of positive allosteric modulator activity(ies) were calculated. Dose-response experiments were all performed in duplicate, two times independently.

T1 sequence (Q14832 23-879): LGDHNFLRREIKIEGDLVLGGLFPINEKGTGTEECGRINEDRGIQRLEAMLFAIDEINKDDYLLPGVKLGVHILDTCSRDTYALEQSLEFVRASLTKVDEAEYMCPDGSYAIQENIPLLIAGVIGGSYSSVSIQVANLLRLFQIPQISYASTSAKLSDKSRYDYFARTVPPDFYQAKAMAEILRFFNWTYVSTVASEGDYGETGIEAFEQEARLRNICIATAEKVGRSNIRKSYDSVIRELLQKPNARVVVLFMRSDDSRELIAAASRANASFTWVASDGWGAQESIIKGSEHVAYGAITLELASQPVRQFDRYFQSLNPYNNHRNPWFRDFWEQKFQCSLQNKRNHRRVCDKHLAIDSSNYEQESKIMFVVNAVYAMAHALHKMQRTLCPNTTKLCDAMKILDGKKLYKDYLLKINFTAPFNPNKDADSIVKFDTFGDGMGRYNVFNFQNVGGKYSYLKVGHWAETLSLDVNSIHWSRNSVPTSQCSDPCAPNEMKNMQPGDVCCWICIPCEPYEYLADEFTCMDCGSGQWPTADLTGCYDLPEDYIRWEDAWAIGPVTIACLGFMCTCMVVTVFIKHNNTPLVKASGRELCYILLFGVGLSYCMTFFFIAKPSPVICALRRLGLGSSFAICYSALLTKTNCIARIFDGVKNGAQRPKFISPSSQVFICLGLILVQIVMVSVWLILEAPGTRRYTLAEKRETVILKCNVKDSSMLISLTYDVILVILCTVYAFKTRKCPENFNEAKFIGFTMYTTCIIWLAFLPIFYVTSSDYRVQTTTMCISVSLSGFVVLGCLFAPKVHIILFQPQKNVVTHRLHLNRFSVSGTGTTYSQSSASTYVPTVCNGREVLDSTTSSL

Row | EC50 [nM] | SMILES
1 | 100 to 1000 | Cc1ncccc1-c1ccc2c(c1)-n1cc(-c3ccc(Cl)cc3)cc1C(=O)N(C)C21CC1 [Example 149]
2 | 100 to 1000 | Cc1ncccc1-c1ccc2c(c1)-n1cc(-c3ccccc3Cl)cc1C(=O)N(C)C21CC1 [Example 147]
3 | < 100 | Cc1ncccc1-c1ccc2c(c1)-n1cc(-c3ccncc3)cc1C(=O)N(C)C21CC1 [Example 145]
4 | 100 to 1000 | CN1C(=O)c2cccn2-c2cc(-c3cccnc3C3CC3)ccc2C12CC2 [Example 62, 5-Methyl-9-(2-cyclopropylpyridin-3-yl)-spiro[benzo[f]pyrrolo[1,2-a][1,4]diazepine-6,1′-cyclopropan]-4(5H)-one]
5 | 100 to 1000 | Cc1cc(-c2ccc3c(c2)-n2cc(-c4ccccc4)cc2C(=O)N(C)C32CC2)ccn1 [Example 105, 5-Methyl-2-phenyl-9-(2-methyl-pyridin-4-yl)-spiro[benzo[f]pyrrolo[1,2-a][1,4]diazepine-6,1′-cyclopropan]-4(5H)-one]
6 | 100 to 1000 | Cc1ncccc1-c1ccc2c(c1)-n1cc(Br)cc1C(=O)N(C)C21CC1 [Example 17, 2-Bromo-5-methyl-9-(2-methyl-pyridin-3-yl)-spiro[benzo[f]pyrrolo[1,2-a][1,4]diazepine-6,1′-cyclopropan]-4(5H)-one]
7 | < 100 | Cc1ncccc1-c1ccc2c(c1)-n1cc(-c3cccc(F)c3)cc1C(=O)N(C)C21CC1 [Example 152]
8 | 100 to 1000 | CN1C(=O)c2cccn2-c2cc(C3=CCN(c4ccncn4)CC3)ccc2C12CC2 [Example 47, 5-Methyl-9-(1-pyrimidin-4-yl-1,2,3,6-tetrahydro-pyridin-4-yl)-spiro[benzo[f]pyrrolo[1,2-a][1,4]diazepine-6,1′-cyclopropan]-4(5H)-one]
9 | 100 to 1000 | Cc1ncccc1-c1ccc2c(c1)-n1cc(C(=O)C3CCCC3)cc1C(=O)N(C)C21CC1 [Example 194]
10 | > 1000 | Cc1ncccc1-c1ccc2c(c1)-n1cncc1C(=O)N(C)C2 [Example 215, 5-Methyl-9-(2-methylpyridin-3-yl)-5,6-dihydro-4H-benzo[f]imidazo[1,5-a][1,4]diazepin-4-one]
11 | 100 to 1000 | CCc1ncccc1-c1ccc2c(c1)-n1cc(-c3ccccc3)cc1C(=O)N(C)C21CC1 [Example 99, 5-Methyl-2-phenyl-9-(2-ethyl-pyridin-3-yl)-spiro[benzo[f]pyrrolo[1,2-a][1,4]diazepine-6,1′-cyclopropan]-4(5H)-one]
12 | < 100 | CN1C(=O)c2cccn2-c2cc(-c3ccc(Cl)nc3)ccc2C12CC2 [Example 54, 5-Methyl-9-(6-chloropyridin-3-yl)-spiro[benzo[f]pyrrolo[1,2-a][1,4]diazepine-6,1′-cyclopropan]-4(5H)-one]
13 | < 100 | CN(C)c1ccc(-c2ccc3c(c2)-n2cc(-c4ccccc4)cc2C(=O)N(C)C32CC2)cn1 [Example 114, 5-Methyl-2-phenyl-9-(6-dimethylamino-pyridin-3-yl)-spiro[benzo[f]pyrrolo[1,2-a][1,4]diazepine-6,1′-cyclopropan]-4(5H)-one]
14 | > 1000 | CN1C(=O)c2cccn2-c2cc(Cl)ccc2C1(C)C [Example 222, 9-Chloro-5,6,6-trimethyl-5,6-dihydro-benzo[f]pyrrolo[1,2-a][1,4]diazepin-4-one]
15 | < 100 | Cc1ncccc1-c1ccc2c(c1)-n1c(F)ccc1C(=O)N(C)C21CC1 [Example 81, 9-(2-Methyl-pyridin-3-yl)-1-fluoro-5-methyl-spiro[benzo[f]pyrrolo[1,2-a][1,4]diazepine-6,1′-cyclopropan]-4(5H)-one]
16 | 100 to 1000 | Cc1cnccc1-c1ccc2c(c1)-n1cccc1C(=O)N(C)C21CC1 [Example 38, 5-Methyl-9-(3-methylpyridin-4-yl)-spiro[benzo[f]pyrrolo[1,2-a][1,4]diazepine-6,1′-cyclopropan]-4(5H)-one]
17 | < 100 | CCc1ncccc1-c1ccc2c(c1)-n1cc(-c3ccccc3F)cc1C(=O)N(C)C21CC1 [Example 162]

Row | EC50 [nM] | SMILES
18 | > 1000 | CN1C(=O)c2c(Cl)ccn2-c2cc(Br)ccc2C12CC2 [Example 6, 9-Bromo-3-chloro-5-methyl-spiro[benzo[f]pyrrolo[1,2-a][1,4]diazepine-6,1′-cyclopropan]-4(5H)-one]
19 | > 1000 | CN1C(=O)c2cc(-c3ccccc3)nn2-c2cc(Br)ccc2C12CC2 [Example 11, 9-Bromo-5-methyl-2-phenyl-spiro[benzo[f]pyrazolo[1,5-a][1,4]diazepine-6,1′-cyclopropan]-4(5H)-one]
20 | 100 to 1000 | CN1C(=O)c2cccn2-c2cc(-c3ccncc3)ccc2C12CC2 [Example 22, 5-Methyl-9-(pyridin-4-yl)-spiro[benzo[f]pyrrolo[1,2-a][1,4]diazepine-6,1′-cyclopropan]-4(5H)-one]
21 | 100 to 1000 | Cc1ncccc1-c1ccc2c(c1)-n1ccc(Cl)c1C(=O)N(C)C21CC1 [Example 84, 9-(2-Methyl-pyridin-3-yl)-3-chloro-5-methyl-spiro[benzo[f]pyrrolo[1,2-a][1,4]diazepine-6,1′-cyclopropan]-4(5H)-one]
22 | < 100 | Cc1ccc(-c2ccc3c(c2)-n2cc(-c4ccccc4)cc2C(=O)N(C)C32CC2)c(C)n1 [Example 107, 5-Methyl-2-phenyl-9-(2,6-dimethyl-pyridin-3-yl)-spiro[benzo[f]pyrrolo[1,2-a][1,4]diazepine-6,1′-cyclopropan]-4(5H)-one]
23 | > 1000 | CN1C(=O)c2cc(-c3ccccc3)nn2-c2cc(-c3ccccc3Cl)ccc2C12CC2 [Example 131, 9-(2-Chloro-phenyl)-5-methyl-2-phenyl-spiro[benzo[f]pyrazolo[1,5-a][1,4]diazepine-6,1′-cyclopropan]-4(5H)-one]
24 | > 1000 | Cc1ncccc1-c1ccc2c(c1)-n1nccc1C(=O)N(C)C2 [Example 217, 5-Methyl-9-(2-methylpyridin-3-yl)-5,6-dihydro-4H-benzo[f]pyrazolo[1,5-a][1,4]diazepin-4-one]
25 | < 100 | Cc1ncccc1-c1ccc2c(c1)-n1c(cc(Cl)c1F)C(=O)N(C)C21CC1 [Example 83, 9-(2-Methyl-pyridin-3-yl)-2-chloro-1-fluoro-5-methyl-spiro[benzo[f]pyrrolo[1,2-a][1,4]diazepine-6,1′-cyclopropan]-4(5H)-one]
26 | < 100 | COCc1cc2n(c1)-c1cc(-c3ccc(C)nc3)ccc1C1(CC1)N(C)C2=O [Example 205]
27 | < 100 | CCc1ncccc1-c1ccc2c(c1)-n1cc(C)cc1C(=O)N(C)C21CC1 [Example 199]
28 | 100 to 1000 | CN1C(=O)c2cccn2-c2cc(-c3cc(F)ccn3)ccc2C12CC2 [Example 57, 5-Methyl-9-(4-fluoropyridin-2-yl)-spiro[benzo[f]pyrrolo[1,2-a][1,4]diazepine-6,1′-cyclopropan]-4(5H)-one]
29 | > 1000 | CN1C(=O)c2cccn2-c2cc(Br)c(F)cc2C12CC2 [Example 9, 9-Bromo-8-fluoro-5-methyl-spiro[benzo[f]pyrrolo[1,2-a][1,4]diazepine-6,1′-cyclopropan]-4(5H)-one]
30 | 100 to 1000 | Cc1cc(-c2ccc3c(c2)-n2cccc2C(=O)N(C)C32CC2)ccn1 [Example 26, 5-Methyl-9-(2-methylpyridin-4-yl)-spiro[benzo[f]pyrrolo[1,2-a][1,4]diazepine-6,1′-cyclopropan]-4(5H)-one]
31 | < 100 | Cc1ncccc1-c1ccc2c(c1)-n1cc(-c3cnc[nH]3)cc1C(=O)N(C)C21CC1 [Example 183]
32 | > 1000 | CN(C)c1ncccc1-c1ccc2c(c1)-n1cc(-c3ccccc3)cc1C(=O)N(C)C21CC1 [Example 119, 5-Methyl-2-phenyl-9-(2-dimethylamino-pyridin-3-yl)-spiro[benzo[f]pyrrolo[1,2-a][1,4]diazepine-6,1′-cyclopropan]-4(5H)-one]
33 | 100 to 1000 | CN1C(=O)c2cc(-c3ccccc3)cn2-c2cc(-c3ccc(N)nc3)ccc2C12CC2 [Example 96, 5-Methyl-2-phenyl-9-(6-amino-pyridin-3-yl)-spiro[benzo[f]pyrrolo[1,2-a][1,4]diazepine-6,1′-cyclopropan]-4(5H)-one]
34 | < 100 | CCc1ncccc1-c1ccc2c(c1)-n1cc(COC)cc1C(=O)N(C)C21CC1 [Example 206]
